# Results: patent US20070167431A1, “Method for the treatment of cognitive dysfunction” (Wyeth, priority 2006, published 2007)
# “Also recorded” adds a separate entry of the source. Like-named read-outs stand apart in the source and are kept apart here.
# Experiments:
# [1] = system: acetylcholine release in dorsal hippocampus; experiment: Acetylcholine release in rat dorsal hippocampus, microdialysis; type: in vivo, Sprague Dawley rats; settings: rat dorsal hippocampus dialysate
# Source text: Male Sprague Dawley rats were anesthetized with halothane and secured in a stereotaxic frame to allow implantation of a microdialysis guide cannula above the dorsal hippocampus (coordinatesXXX; Paxinos & Watson 1986). The guide cannula was secured using dental acrylic and two small skull screws. Following surgery, animals were individually housed in microdialysis cages with free access to food and water. The following day a microdialysis probe was inserted via the guide cannula into the hippocampus. Probes were perfused with artificial cerebrospinal fluid at a flow rate of 0.5 μl/min. Dialysates were collected every 40 min and were put on dry ice immediately after collection for subsequent analysis. A 3 h stabilization period was allowed following probe insertion after which time baseline samples were collected for 120 min. Rats were then dosed with Aricept (0.5 mg/kg i.p.) or vehicle (saline, 1 ml/kg i.p.). […] Following dosing, dialysis samples were collected for 200 min. At the end of the experiment, animals were euthanized and probe placement was verified histologically. Data from animals with incorrect probe placement were discarded. Dialysates were analyzed for ACh content using LC/MS/MS.
# recognition memory = type: in vivo; settings: 48-hour interval
# Source text: In this evaluation, donepezil (Aricept) is used as the acetylcholinesterase inhibitor component and 3-(1-naphthylsulfonyl)-5-piperazin-1-yl-1H-indazole (Test Compound A) is used as the 5-HT6 component. Novel object recognition is a single trial non-aversive learning paradigm that utilizes the rodent's natural tendency to explore an unfamiliar object more than a familiar one. The learning phase of the paradigm consists of recording the amount of time a rat explores two identical objects it has never seen before during a 5-minute period. Following a 48-hour interval, during which the animal is returned to its homecage, the animal is placed back into the same environment now containing one of the original objects (familiar) and one never experienced before (novel). Recognition memory is reflected as an increase in time spent exploring the novel object relative to that spent exploring the familiar one. The amount of time each animal spends exploring the two objects during the memory trial is analyzed using a repeated-measures ANOVA. […] All treatments were administered prior to the first trial either orally (Test Compound A) or i.p. (Aricept).
# [2] = target: T1, human 5-HT6 receptor stabily transfected into HELA cells (Homo sapiens, UniProt P50406); experiment: 5-HT6 antagonist activity using cAMP accumulation; type: cell-based; settings: decrease of cAMP relative to serotonin (100 nM); 100% Imax indicates 0% intrinsic activity
# T1 construct: expressed in transfected cells; host or cells: HELA cells, stably transfected
# T1 sequence (P50406 whole entry): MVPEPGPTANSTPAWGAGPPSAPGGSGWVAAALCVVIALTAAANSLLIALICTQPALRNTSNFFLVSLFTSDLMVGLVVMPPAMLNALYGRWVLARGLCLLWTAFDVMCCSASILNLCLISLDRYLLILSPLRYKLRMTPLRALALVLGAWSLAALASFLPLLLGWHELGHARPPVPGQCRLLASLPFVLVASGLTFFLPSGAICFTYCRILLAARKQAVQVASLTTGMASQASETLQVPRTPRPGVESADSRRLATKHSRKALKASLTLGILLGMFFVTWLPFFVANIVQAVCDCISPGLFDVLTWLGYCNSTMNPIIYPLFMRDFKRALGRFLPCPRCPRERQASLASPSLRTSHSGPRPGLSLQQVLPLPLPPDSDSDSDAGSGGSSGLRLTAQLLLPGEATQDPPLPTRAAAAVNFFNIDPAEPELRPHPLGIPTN
# Experimental: Intracellular cAMP levels are measured using 96-well plates containing the human 5-HT6 receptor stabily transfected into HELA cells. Upon initiation of the assay, the media from cell maintenance is aspirated and cells are preincubated at 37° C. for 15 mins. in KREBS buffer. Following this primary incubation, the buffer is aspirated and an additional incubation is performed at 37° C. for 5 mins. in KREBS buffer containing 500 uM IBMX (3-isobutyl-1-methylxanthine). Subsequently cells are incubated with test compound concentrations ranging from 10^-5 to 10^-10M for 10 minutes at 37° C. Serotonin (100 nM) is added to the treated cells and incubated for an additional 10 minutes at 37° C. The assay is terminated by the addition of 0.5M perchloric acid. Intracellular CAMP levels are determined by radioimmunoassay through the cAMP SPA screening kit. Data are analyzed graphically with GraphPad Prism (GraphPad Software, San Diego, Calif.). […] The value is recorded as Imax (%) and shown on Table I. (100% Imax indicates 0% intrinsic activity.)
# [3] = target: T2, human cloned 5-HT6 receptors (Homo sapiens, UniProt P50406); experiment: 5-HT6 binding affinity, [3H]-LSD displacement on membranes of Hela cells
# T2 construct: expressed in transfected cells; host or cells: Hela cells (membrane preparation)
# T2 sequence (P50406 whole entry): as above
# Experimental: The affinity of test compounds for the serotonin 5-HT6 receptor is evaluated in the following manner. Cultured Hela cells expressing human cloned 5-HT6 receptors are harvested and centrifuged at low speed (1,000×g) for 10.0 min to remove the culture media. The harvested cells are suspended in half volume of fresh physiological phosphate buffered saline solution and recentrifuged at the same speed. This operation is repeated. The collected cells are then homogenized in ten volumes of 50 mM Tris.HCl (pH 7.4) and 0.5 mM EDTA. The homogenate is centrifuged at 40,000×g for 30.0 min and the precipitate is collected. The obtained pellet is resuspended in 10 volumes of Tris.HCl buffer and recentrifuged at the same speed. The final pellet is suspended in a small volume of Tris.HCl buffer and the tissue protein content is determined in aliquots of 10-25 μl volumes. […] The volume of the suspended cell membranes is adjusted to give a tissue protein concentration of 1.0 mg/ml of suspension. The prepared membrane suspension (10 times concentrated) is aliquoted in 1.0 ml volumes and stored at −70° C. until used in subsequent binding experiments.
# Binding experiments are performed in a 96 well microtiter plate format, in a total volume of 200 μl. […] The test compounds are added in 20.0 μl volume.
# The bound complex caught on the filter disk is allowed to air dry and the radioactivity is measured in a Packard TopCount® equipped with six photomultiplier detectors, after the addition of 40.0 μl Microscint®-20 scintillant to each shallow well.
# Binding in the presence of varying concentrations of test compound is expressed as a percentage of specific binding in the absence of test compound. The results are plotted as log % bound versus log concentration of test compound. […] A linear regression line of data points is plotted, from which the IC50 value is determined and the Ki value is determined based upon the following equation: […]
# where L is the concentration of the radioactive ligand used and KD is the dissociation constant of the ligand for the receptor, both expressed in nM.
# [4] = 5-HT6 antagonist 1 mg/kg po alone
Compound,% Imax [2] [%],retention for the familiar objects (novel object recognition) (recognition memory; [4]),Ki [3] [nM],further results
"COc1cc2c(cc1OC)C(=O)C(CC1CCN(Cc3ccccc3)CC1)C2 (centres unmarked) [Aricept, donepezil]",–,–,–,"increase in acetylcholine concentration (change from baseline) ([1]; Aricept 0.5 mg/kg i.p. alone): 50%; retention for the familiar objects (novel object recognition) (recognition memory; Aricept 0.5 mg/kg ip alone): neither Aricept (0.5 mg/kg, ip) nor Test Compound A (1 mg/kg, po) alone enhanced retention; also recorded: produced no enhancement of recognition memory; also recorded: neither Aricept (0.5 mg/kg, ip) alone nor Test Compound B (1 mg/kg, po) alone enhanced retention; retention for the familiar objects (novel object recognition) (recognition memory; Aricept alone): enhanced retention for the familiar objects"
"COc1ccc2c3c1O[C@H]1C[C@@H](O)C=C[C@@]31CCN(C)C2 [Razadyne, galanthamine]",–,–,–,"retention for the familiar objects (novel object recognition) (recognition memory; Razadyne 0. alone): neither Razadyne (0.1 mg/kg, ip) alone nor Test Compound B (1 mg/kg, po) alone enhanced retention"
"O=S(=O)(c1cccc2ccccc12)c1n[nH]c2ccc(N3CCNCC3)cc12 [Test Compound A, 3-(1-naphthylsulfonyl)-5-piperazin-1-yl-1H-indazole]",100,"neither Aricept (0.5 mg/kg, ip) nor Test Compound A (1 mg/kg, po) alone enhanced retention",1.1,retention for the familiar objects (novel object recognition) (recognition memory; 5-HT6 antagonist 3 mg/kg po alone): enhanced retention for the familiar objects
"CN(C)CCCOc1ccc2[nH]nc(S(=O)(=O)c3cccc4ccccc34)c2c1 [Test Compound B, N,N-dimethyl-3-{[3-(1-naphthylsulfonyl)-1H-indazol-5-yl]oxy}propan-1-amine]",–,"neither Aricept (0.5 mg/kg, ip) alone nor Test Compound B (1 mg/kg, po) alone enhanced retention; also recorded: neither Razadyne (0.1 mg/kg, ip) alone nor Test Compound B (1 mg/kg, po) alone enhanced retention",–,effect on acetylcholine concentration (change from baseline) ([1]; Test Compound B 1 mg/kg p.o. alone): did not affect acetylcholine
"NCCOc1cccc2c(S(=O)(=O)c3cccc4ccccc34)n[nH]c12 [Test Compound C, (2-{[3-(1-naphthylsulfonyl)-1H-indazol-7-yl]oxy}ethyl)amine]",100,–,1.9,–
"O=S(=O)(c1ccccc1)n1ncc2c(N3CCNCC3)cccc21 [Test Compound D, 1-(phenylsulfonyl)-4-(1-piperazinyl)-1H-indazole]",100,–,0.6,–
